# From patent US20070117776A1, “Low Dose Therapy Of DNA Methylation Inhibitors” (priority 2005, published 2007)
# Read-outs that look alike come from different tables or passages of the source.
# Format: physicochemical
# Protocol: Maintaining the solution at low temperature and buffering the drug can control degradation kinetics of aqueous solutions but the stability achieved is not sufficient to render the product stable during its entire proposed shelf life. A dry solid formulation of decitabine which is stable was achieved by lyophilization of an aqueous solution. The process of lyophilization to obtain a solid form is considered essential for maximizing the stability of the product.
# A bulk solution of 5 mg/mL of decitabine was prepared during compounding. To minimize degradation during compounding of the bulk solution prior to lyophilization, the bulk solution was maintained at low temperature, and the time the drug remains in solution prior to lyophilization was minimized. Maximum solution stability was achieved by dissolving the drug in a pH 6.8-7.0 phosphate buffer solution at 0-4° C.
# Based on the results, appropriate recommendations for the preparation and storage of the reconstituted and diluted solutions can be made to pharmacists and clinical practitioners. The product was reconstituted in 10 mL WFI and diluted with one of the three pre-chilled infusion fluids indicated in Table 1 and Table 2 to two different concentrations, 0.1 mg/mL and 1 mg/mL covering the entire concentration range expected to be used in the clinical setting. The diluted solutions were stored for one to ten hours in infusion bags in the refrigerator at 2-8° C. to simulate conditions prior to infusion and then removed and placed at room temperature to simulate conditions during infusion. Bags placed in the refrigerator for one hour were removed and placed at room temperature and sampled thereafter for the next three hours at room temperature (Experiment No. 1) while the bags placed in the refrigerator for ten hours were removed and sampled for the next two hours at room temperature (Experiment No. 2).
# The method used to estimate degradation products is based on percent peak area measurements assuming the degradation products have a response factor of 1, with respect to decitabine.
# Table 1 and Table 2 also show the pH data obtained after the preparation of the infusion, which is consistently within ±0.3 pH units of neutral pH.
# [1] = about 1.0 mg/mL in 0.9% NaCl, Experiment 1 (2-8° C. one hour, then room temperature), at 0 h
# [2] = about 1.0 mg/mL in 0.9% NaCl, Experiment 1 (2-8° C. one hour, then room temperature), at 1 h
# [3] = about 1.0 mg/mL in 0.9% NaCl, Experiment 1 (2-8° C. one hour, then room temperature), at 2 h
# [4] = about 1.0 mg/mL in 0.9% NaCl, Experiment 1 (2-8° C. one hour, then room temperature), at 3 h
# [5] = about 1.0 mg/mL in 0.9% NaCl, Experiment 1 (2-8° C. one hour, then room temperature), at 4 h
# [6] = about 1.0 mg/mL in 0.9% NaCl, Experiment 2 (2-8° C. ten hours, then room temperature), at 0 h
# [7] = about 1.0 mg/mL in 0.9% NaCl, Experiment 2 (2-8° C. ten hours, then room temperature), at 10 h
# [8] = about 1.0 mg/mL in 0.9% NaCl, Experiment 2 (2-8° C. ten hours, then room temperature), at 11 h
# [9] = about 1.0 mg/mL in 0.9% NaCl, Experiment 2 (2-8° C. ten hours, then room temperature), at 12 h
# [10] = about 1.0 mg/mL in 5% Dextrose, Experiment 1 (2-8° C. one hour, then room temperature), at 0 h
# [11] = about 1.0 mg/mL in 5% Dextrose, Experiment 1 (2-8° C. one hour, then room temperature), at 1 h
# [12] = about 1.0 mg/mL in 5% Dextrose, Experiment 1 (2-8° C. one hour, then room temperature), at 2 h
# [13] = about 1.0 mg/mL in 5% Dextrose, Experiment 1 (2-8° C. one hour, then room temperature), at 3 h
# [14] = about 1.0 mg/mL in 5% Dextrose, Experiment 1 (2-8° C. one hour, then room temperature), at 4 h
# [15] = about 1.0 mg/mL in 5% Dextrose, Experiment 2 (2-8° C. ten hours, then room temperature), at 0 h
# [16] = about 1.0 mg/mL in 5% Dextrose, Experiment 2 (2-8° C. ten hours, then room temperature), at 10 h
# [17] = about 1.0 mg/mL in 5% Dextrose, Experiment 2 (2-8° C. ten hours, then room temperature), at 11 h
# [18] = about 1.0 mg/mL in 5% Dextrose, Experiment 2 (2-8° C. ten hours, then room temperature), at 12 h
# [19] = about 1.0 mg/mL in Lactated Ringer's, Experiment 1 (2-8° C. one hour, then room temperature), at 0 h
# [20] = about 1.0 mg/mL in Lactated Ringer's, Experiment 1 (2-8° C. one hour, then room temperature), at 1 h
# [21] = about 1.0 mg/mL in Lactated Ringer's, Experiment 1 (2-8° C. one hour, then room temperature), at 2 h
# [22] = about 1.0 mg/mL in Lactated Ringer's, Experiment 1 (2-8° C. one hour, then room temperature), at 3 h
# [23] = about 1.0 mg/mL in Lactated Ringer's, Experiment 1 (2-8° C. one hour, then room temperature), at 4 h
# [24] = about 1.0 mg/mL in Lactated Ringer's, Experiment 2 (2-8° C. ten hours, then room temperature), at 0 h
# [25] = about 1.0 mg/mL in Lactated Ringer's, Experiment 2 (2-8° C. ten hours, then room temperature), at 10 h
# [26] = about 1.0 mg/mL in Lactated Ringer's, Experiment 2 (2-8° C. ten hours, then room temperature), at 11 h
# [27] = about 1.0 mg/mL in Lactated Ringer's, Experiment 2 (2-8° C. ten hours, then room temperature), at 12 h
compound,measurement,setting,value
"Nc1ncn([C@H]2C[C@H](O)[C@@H](CO)O2)c(=O)n1 [Decitabine, 4-amino-1-(2-deoxy-β-D-erythro-pentofuranosyl)-1,3,5-triazin-2(1H)-one]",pH deviation from neutral pH after the preparation of the infusion,Table 1 and Table 2 solutions,≤ 0.3 pH units
same,pH after the preparation of the infusion,about 1.0 mg/mL in 0.9% NaCl,6.7
same,Decitabine Content,[1],98.0%
same,Total Impurities,[1],(2.1%)
same,Decitabine Content,[2],96.8%
same,Total Impurities,[2],(3.3%)
same,Decitabine Content,[3],94.8%
same,Total Impurities,[3],(5.2%)
same,Decitabine Content,[4],92.8%
same,Total Impurities,[4],(7.3%)
same,Decitabine Content,[5],91.1%
same,Total Impurities,[5],(9.0%)
same,Decitabine Content,[6],97.4%
same,Total Impurities,[6],(2.7%)
same,Decitabine Content,[7],93.4%
same,Total Impurities,[7],(6.7%)
same,Decitabine Content,[8],92.5%
same,Total Impurities,[8],(7.6%)
same,Decitabine Content,[9],90.8%
same,Total Impurities,[9],(9.2%)
same,pH after the preparation of the infusion,about 1.0 mg/mL in 5% Dextrose,7.1
same,Decitabine Content,[10],98.0%
same,Total Impurities,[10],(2.0%)
same,Decitabine Content,[11],97.0%
same,Total Impurities,[11],(3.1%)
same,Decitabine Content,[12],95.6%
same,Total Impurities,[12],(4.4%)
same,Decitabine Content,[13],93.7%
same,Total Impurities,[13],(6.4%)
same,Decitabine Content,[14],91.9%
same,Total Impurities,[14],(8.1%)
same,Decitabine Content,[15],97.7%
same,Total Impurities,[15],(2.4%)
same,Decitabine Content,[16],94.5%
same,Total Impurities,[16],(5.5%)
same,Decitabine Content,[17],93.9%
same,Total Impurities,[17],(6.1%)
same,Decitabine Content,[18],93.0%
same,Total Impurities,[18],(7.1%)
same,pH after the preparation of the infusion,about 1.0 mg/mL in Lactated Ringer's,6.8
same,Decitabine Content,[19],98.1%
same,Total Impurities,[19],(2.0%)
same,Decitabine Content,[20],97.3%
same,Total Impurities,[20],(2.7%)
same,Decitabine Content,[21],96.2%
same,Total Impurities,[21],(3.8%)
same,Decitabine Content,[22],95.1%
same,Total Impurities,[22],(4.9%)
same,Decitabine Content,[23],93.7%
same,Total Impurities,[23],(6.4%)
same,Decitabine Content,[24],98.0%
same,Total Impurities,[24],(2.1%)
same,Decitabine Content,[25],94.1%
same,Total Impurities,[25],(5.9%)
same,Decitabine Content,[26],93.3%
same,Total Impurities,[26],(6.8%)
same,Decitabine Content,[27],91.8%
same,Total Impurities,[27],(8.2%)
same,visual inspection of solutions,all reconstituted and diluted solutions,clear and colorless
same,drug content in the infusion solution during infusion,infusions prepared and stored as instructed,above 90%
